In publication PMC11532403 (Signal Transduction and Targeted Therapy, 2024):
Like-named read-outs stand apart in the source and are kept apart here.

Key:
respiratory system = assay: Respiratory safety pharmacology; assay type: in vivo, SD rats; conditions: single oral, males 15-40, females 30-80 mg/kg
Method: All rats were evaluated by cage-side observation, detailed clinical observation, body weight and respiratory parameters (tidal volume, minute tidal volume and respiratory rate).

[1] = Tissue distribution in rats; assay type: in vivo; conditions: both sexes, rat, po, 20 mg/kg gavage
Source text: The exposures in body fat, small intestine, heart, uterus, skeletal muscle, testis and brain were lower than in plasma and the rest were higher than in plasma. The highest exposures were found in the liver, stomach and lung, which were 358, 202 and 173% of plasma, respectively. […] There was no significant sex difference in the exposure of SY-5007 in rat tissues.

**Q.** With `COc1ccc(CN2C3CC2CN(c2ccc(-c4cc(N5CC(C)(O)C5)cn5ncc(C#N)c45)cn2)C3)cn1` [SY-5007, 6-(3-hydroxy-3-methylazetidin-1-yl)-4-(6-(6-((6-methoxypyridin-3-yl)methyl)-3,6-diazabicyclo[3.1.1]heptan-3-yl)pyridin-3-yl)pyrazolo[1,5-a]pyridine-3-carbonitrile] as the molecule, how does the Respiratory effects (respiratory system) read?
**A.** The Respiratory effects was “nor did it show any effects on the respiratory parameters”.

**Q.** What about the Kp ([1]; brain, read-out: Brain exposure (AUC0~24h)) of the same molecule?
**A.** Its Kp is 0.00195.

**Q.** What about the Kp ([1]; liver, read-out: Liver exposure (AUC0~24h)) of the same molecule?
**A.** The Kp was 3.58.

**Q.** What about the Kp ([1]; lung, read-out: Lung exposure (AUC0~24h)) of the same molecule?
**A.** Its Kp is 1.73.

**Q.** What about the Kp ([1]; stomach, read-out: Stomach exposure (AUC0~24h)) of the same molecule?
**A.** The Kp was 2.02.
